The values that follow come from ChEMBL document CHEMBL4507327 (2021).

Test [1] deals with Alpha-1D adrenergic receptor (Homo sapiens) (UniProt P25100). The test is described as follows: Inhibition of Adrenergic alpha1D at 10 µM in the Eurofins-Panlabs radioligand binding assay (Eurofins_assay_203400). The note with it: Compound concentration 10.0 uM.
In test [2] the target is Serine/threonine-protein kinase Nek8 (Homo sapiens, UniProt Q86SG6). Briefly: Nek8(NEK8LGRI) Takeda global kinase panel.
Test [3] concerns the target T1, 5-hydroxytryptamine receptor 1A (Homo sapiens) (UniProt P08908).
T1 sequence (whole entry): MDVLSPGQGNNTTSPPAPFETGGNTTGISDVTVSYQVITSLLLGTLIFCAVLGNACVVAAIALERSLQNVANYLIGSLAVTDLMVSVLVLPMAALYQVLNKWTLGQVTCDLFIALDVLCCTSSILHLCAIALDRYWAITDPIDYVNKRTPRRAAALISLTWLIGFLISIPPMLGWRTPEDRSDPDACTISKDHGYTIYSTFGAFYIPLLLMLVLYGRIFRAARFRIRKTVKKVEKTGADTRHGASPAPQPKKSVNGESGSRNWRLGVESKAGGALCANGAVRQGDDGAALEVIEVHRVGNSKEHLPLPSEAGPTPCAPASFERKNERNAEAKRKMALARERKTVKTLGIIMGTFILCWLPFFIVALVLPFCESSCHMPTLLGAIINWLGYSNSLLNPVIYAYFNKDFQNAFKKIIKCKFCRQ
To be noted: Compound concentration 10.0 uM.

Test [4] has as its target 5-hydroxytryptamine receptor 1E (Homo sapiens) (UniProt P28566). The note with it: Compound concentration 10.0 uM.
Test [5] concerns the target 5-hydroxytryptamine receptor 2B (Homo sapiens) (UniProt P41595). The note with it: Compound concentration 10.0 uM.
Test [6] has as its target D(1A) dopamine receptor (Homo sapiens) (UniProt P21728). The note with it: Compound concentration 10.0 uM.
Test [7] deals with D(2) dopamine receptor (Homo sapiens) (UniProt P14416). To be noted: Compound concentration 10.0 uM.
The target in test [8] is D(3) dopamine receptor (Homo sapiens) (UniProt P35462). To be noted: Compound concentration 10.0 uM.
The target of test [9] is D(1B) dopamine receptor (Homo sapiens) (UniProt P21918). To be noted: Compound concentration 10.0 uM.
Test [10] has as its target Alpha-2C adrenergic receptor (Homo sapiens) (UniProt P18825). The note with it: Compound concentration 10.0 uM.
For test [11], the target named is Muscarinic acetylcholine receptor M3 (Homo sapiens) (UniProt P20309). The note with it: Compound concentration 10.0 uM.
The target of test [12] is Muscarinic acetylcholine receptor M4 (Homo sapiens) (UniProt P08173). The note with it: Compound concentration 10.0 uM.
Test [13] concerns the target Muscarinic acetylcholine receptor M5 (Homo sapiens) (UniProt P08912). The note with it: Compound concentration 10.0 uM.
The species entered for the next test is Rattus norvegicus. To be noted: Compound concentration 10.0 uM.
For test [14], the target named is Sigma intracellular receptor 2 (Homo sapiens) (UniProt Q5BJF2). To be noted: Compound concentration 10.0 uM.
Test [15] deals with Endothelin-1 receptor (Homo sapiens) (UniProt P25101). To be noted: Compound concentration 10.0 uM.
For the next test, the species on record is Oryctolagus cuniculus. The note with it: Compound concentration 10.0 uM.
Test [16] deals with Inhibitor of nuclear factor kappa-B kinase subunit alpha (Homo sapiens, UniProt O15111). Briefly: IKKalpha(CHUKLGP1) Takeda global kinase panel.
Test [17] has as its target MAP kinase-activated protein kinase 5 (Homo sapiens, UniProt Q8IW41). Briefly: MAPKAPK5(MPK5LGN1) Takeda global kinase panel.
Test [18] has as its target 5'-AMP-activated protein kinase catalytic subunit alpha-2 (Homo sapiens, UniProt P54646). Briefly: AMPKalpha2(PRA2LGY1) Takeda global kinase panel.
The target in test [19] is cAMP-dependent protein kinase catalytic subunit beta (Homo sapiens, UniProt P22694). The test is described as follows: PKAbeta(PRCBLGF1) Takeda global kinase panel.
The target in test [20] is Calcium/calmodulin-dependent protein kinase type 1 (Homo sapiens, UniProt Q14012). Briefly: CaMK1alpha(CAM1LGT5) Takeda global kinase panel.
In test [21] the target is Calcium/calmodulin-dependent protein kinase type 1D (Homo sapiens, UniProt Q8IU85). Briefly: CaMK1delta(CA1DLGT5) Takeda global kinase panel.
The target of test [22] is Calcium/calmodulin-dependent protein kinase type II subunit beta (Homo sapiens, UniProt Q13554). The test is described as follows: CaMK2beta(CA2BCGT1) Takeda global kinase panel.
Test [23] has as its target Tyrosine-protein kinase Fyn (Homo sapiens, UniProt P06241). The test is described as follows: Fyn(FYN1LGF5) Takeda global kinase panel.
For test [24], the target named is Interleukin-1 receptor-associated kinase 1 (Homo sapiens, UniProt P51617). The test is described as follows: IRAK1(IRK1LGF1) Takeda global kinase panel.
Test [25] deals with Dual specificity mitogen-activated protein kinase kinase 2 (Homo sapiens, UniProt P36507). The test is described as follows: MEK2 [MAP2K2(M2K2LGF1)] Takeda global kinase panel.
In test [26] the target is Dual specificity mitogen-activated protein kinase kinase 7 (Homo sapiens, UniProt O14733). Briefly: MAP2K7(M2K7CGRI) Takeda global kinase panel.
The target in a further test is Myosin-IIIa (Homo sapiens, UniProt Q8NEV4). The test is described as follows: MYO3A(MY3ALGRI) Takeda global kinase panel.
The target of test [27] is Protein kinase C gamma type (Homo sapiens, UniProt P05129). Briefly: PKCgamma(PRKGLGP1) Takeda global kinase panel.
The target of test [28] is cGMP-dependent protein kinase 1 (Homo sapiens, UniProt Q13976). Briefly: PKG1(PRG1LFP1) Takeda global kinase panel.
Test [29] has as its target Proto-oncogene tyrosine-protein kinase receptor Ret (Homo sapiens, UniProt P07949). The test is described as follows: Ret(RET1LGF1) Takeda global kinase panel.
For test [30], the target named is Serine/threonine-protein kinase Sgk1 (Homo sapiens, UniProt O00141). The test is described as follows: SGK1(SGK1LGF1) Takeda global kinase panel.
Test [31] deals with Proto-oncogene tyrosine-protein kinase Src (Homo sapiens, UniProt P12931). Briefly: Src(SRC1LGF5) Takeda global kinase panel.
For test [32], the target named is Serine/threonine-protein kinase 25 (Homo sapiens, UniProt O00506). The test is described as follows: YSK1(ST25LHY1) Takeda global kinase panel.
Test [33] addresses Serine/threonine-protein kinase 38-like (Homo sapiens, UniProt Q9Y2H1). The test is described as follows: NDR2(S38LLGF1) Takeda global kinase panel.
Test [34] concerns the target Dual specificity testis-specific protein kinase 1 (Homo sapiens, UniProt Q15569). The test is described as follows: TESK1(TES1LGRA) Takeda global kinase panel.
The target of test [35] is Tyrosine-protein kinase ZAP-70 (Homo sapiens, UniProt P43403). The test is described as follows: ZAP70(ZAP7LGP1) Takeda global kinase panel.
In test [36] the target is Glutamate NMDA receptor (Rattus norvegicus) (UniProt P35439+Q00959+Q00960+Q00961+Q62645+Q8VHN2+Q9R1M7). To be noted: Compound concentration 10.0 uM.
Test [37] deals with Histamine H2 receptor (Homo sapiens) (UniProt P25021). To be noted: Compound concentration 10.0 uM.

Chain of Serine/threonine-protein kinase 25 (O00506 whole entry): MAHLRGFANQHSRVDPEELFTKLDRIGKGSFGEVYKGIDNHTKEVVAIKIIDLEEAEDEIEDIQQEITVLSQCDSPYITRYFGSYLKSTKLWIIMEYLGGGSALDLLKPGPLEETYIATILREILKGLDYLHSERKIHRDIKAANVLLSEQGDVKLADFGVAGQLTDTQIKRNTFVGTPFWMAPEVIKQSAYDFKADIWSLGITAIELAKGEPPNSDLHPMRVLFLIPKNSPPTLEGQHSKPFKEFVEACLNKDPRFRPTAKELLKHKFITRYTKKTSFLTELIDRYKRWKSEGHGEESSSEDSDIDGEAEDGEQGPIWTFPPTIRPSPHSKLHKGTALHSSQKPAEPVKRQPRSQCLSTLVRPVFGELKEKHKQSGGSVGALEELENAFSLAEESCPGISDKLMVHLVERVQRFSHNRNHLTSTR
Chain of Tyrosine-protein kinase ZAP-70 (P43403 whole entry): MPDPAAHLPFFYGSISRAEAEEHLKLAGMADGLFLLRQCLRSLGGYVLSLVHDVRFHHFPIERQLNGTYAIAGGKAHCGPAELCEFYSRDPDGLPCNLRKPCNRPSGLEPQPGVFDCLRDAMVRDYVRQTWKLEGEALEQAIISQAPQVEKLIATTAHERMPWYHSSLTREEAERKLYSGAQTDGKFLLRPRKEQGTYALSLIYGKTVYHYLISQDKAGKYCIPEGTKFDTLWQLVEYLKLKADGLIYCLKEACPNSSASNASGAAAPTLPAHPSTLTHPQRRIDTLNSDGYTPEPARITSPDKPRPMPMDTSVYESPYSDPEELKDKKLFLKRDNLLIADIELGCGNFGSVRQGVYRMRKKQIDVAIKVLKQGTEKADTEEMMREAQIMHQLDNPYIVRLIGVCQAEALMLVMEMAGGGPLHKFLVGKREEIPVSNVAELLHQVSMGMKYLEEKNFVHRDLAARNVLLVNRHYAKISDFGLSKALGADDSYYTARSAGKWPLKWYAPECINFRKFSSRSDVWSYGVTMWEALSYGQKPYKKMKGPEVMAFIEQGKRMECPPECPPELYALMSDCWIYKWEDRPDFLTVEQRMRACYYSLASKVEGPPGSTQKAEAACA
Chain of Sigma intracellular receptor 2 (Homo sapiens) (Q5BJF2 whole entry): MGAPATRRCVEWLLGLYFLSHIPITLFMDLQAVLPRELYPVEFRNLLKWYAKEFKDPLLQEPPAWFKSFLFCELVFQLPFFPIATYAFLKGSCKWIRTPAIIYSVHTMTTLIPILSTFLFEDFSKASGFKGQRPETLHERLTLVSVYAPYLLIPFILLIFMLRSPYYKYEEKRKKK
Chain of Proto-oncogene tyrosine-protein kinase receptor Ret (P07949 whole entry): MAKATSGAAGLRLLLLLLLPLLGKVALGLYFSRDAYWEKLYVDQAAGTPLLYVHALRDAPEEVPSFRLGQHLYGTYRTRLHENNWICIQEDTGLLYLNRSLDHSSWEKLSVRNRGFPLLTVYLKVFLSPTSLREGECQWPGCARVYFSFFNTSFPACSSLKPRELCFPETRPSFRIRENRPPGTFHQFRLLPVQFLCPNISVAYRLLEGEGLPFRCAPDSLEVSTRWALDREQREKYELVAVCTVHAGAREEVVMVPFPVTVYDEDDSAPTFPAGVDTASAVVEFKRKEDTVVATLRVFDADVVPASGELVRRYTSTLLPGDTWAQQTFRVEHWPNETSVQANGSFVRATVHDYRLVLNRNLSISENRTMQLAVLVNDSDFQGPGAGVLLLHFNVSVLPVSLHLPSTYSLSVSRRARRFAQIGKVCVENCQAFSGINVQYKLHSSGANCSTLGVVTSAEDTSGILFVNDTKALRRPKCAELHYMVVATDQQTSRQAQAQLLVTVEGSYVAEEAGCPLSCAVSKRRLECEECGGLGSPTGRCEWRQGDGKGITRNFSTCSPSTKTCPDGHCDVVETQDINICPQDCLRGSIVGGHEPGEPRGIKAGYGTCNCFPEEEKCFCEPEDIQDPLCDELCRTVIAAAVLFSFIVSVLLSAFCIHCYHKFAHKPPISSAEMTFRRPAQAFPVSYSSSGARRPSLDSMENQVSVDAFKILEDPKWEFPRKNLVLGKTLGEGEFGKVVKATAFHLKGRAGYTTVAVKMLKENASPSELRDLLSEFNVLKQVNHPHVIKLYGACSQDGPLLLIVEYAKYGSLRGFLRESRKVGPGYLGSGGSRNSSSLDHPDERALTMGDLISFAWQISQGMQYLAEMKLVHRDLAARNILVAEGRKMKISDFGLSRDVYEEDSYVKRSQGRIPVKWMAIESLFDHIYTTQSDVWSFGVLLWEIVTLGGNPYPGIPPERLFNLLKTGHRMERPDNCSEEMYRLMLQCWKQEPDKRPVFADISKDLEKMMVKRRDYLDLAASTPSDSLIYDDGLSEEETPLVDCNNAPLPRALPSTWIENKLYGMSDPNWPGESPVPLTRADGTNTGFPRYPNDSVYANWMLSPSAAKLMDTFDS
Chain of Myosin-IIIa (Q8NEV4 whole entry): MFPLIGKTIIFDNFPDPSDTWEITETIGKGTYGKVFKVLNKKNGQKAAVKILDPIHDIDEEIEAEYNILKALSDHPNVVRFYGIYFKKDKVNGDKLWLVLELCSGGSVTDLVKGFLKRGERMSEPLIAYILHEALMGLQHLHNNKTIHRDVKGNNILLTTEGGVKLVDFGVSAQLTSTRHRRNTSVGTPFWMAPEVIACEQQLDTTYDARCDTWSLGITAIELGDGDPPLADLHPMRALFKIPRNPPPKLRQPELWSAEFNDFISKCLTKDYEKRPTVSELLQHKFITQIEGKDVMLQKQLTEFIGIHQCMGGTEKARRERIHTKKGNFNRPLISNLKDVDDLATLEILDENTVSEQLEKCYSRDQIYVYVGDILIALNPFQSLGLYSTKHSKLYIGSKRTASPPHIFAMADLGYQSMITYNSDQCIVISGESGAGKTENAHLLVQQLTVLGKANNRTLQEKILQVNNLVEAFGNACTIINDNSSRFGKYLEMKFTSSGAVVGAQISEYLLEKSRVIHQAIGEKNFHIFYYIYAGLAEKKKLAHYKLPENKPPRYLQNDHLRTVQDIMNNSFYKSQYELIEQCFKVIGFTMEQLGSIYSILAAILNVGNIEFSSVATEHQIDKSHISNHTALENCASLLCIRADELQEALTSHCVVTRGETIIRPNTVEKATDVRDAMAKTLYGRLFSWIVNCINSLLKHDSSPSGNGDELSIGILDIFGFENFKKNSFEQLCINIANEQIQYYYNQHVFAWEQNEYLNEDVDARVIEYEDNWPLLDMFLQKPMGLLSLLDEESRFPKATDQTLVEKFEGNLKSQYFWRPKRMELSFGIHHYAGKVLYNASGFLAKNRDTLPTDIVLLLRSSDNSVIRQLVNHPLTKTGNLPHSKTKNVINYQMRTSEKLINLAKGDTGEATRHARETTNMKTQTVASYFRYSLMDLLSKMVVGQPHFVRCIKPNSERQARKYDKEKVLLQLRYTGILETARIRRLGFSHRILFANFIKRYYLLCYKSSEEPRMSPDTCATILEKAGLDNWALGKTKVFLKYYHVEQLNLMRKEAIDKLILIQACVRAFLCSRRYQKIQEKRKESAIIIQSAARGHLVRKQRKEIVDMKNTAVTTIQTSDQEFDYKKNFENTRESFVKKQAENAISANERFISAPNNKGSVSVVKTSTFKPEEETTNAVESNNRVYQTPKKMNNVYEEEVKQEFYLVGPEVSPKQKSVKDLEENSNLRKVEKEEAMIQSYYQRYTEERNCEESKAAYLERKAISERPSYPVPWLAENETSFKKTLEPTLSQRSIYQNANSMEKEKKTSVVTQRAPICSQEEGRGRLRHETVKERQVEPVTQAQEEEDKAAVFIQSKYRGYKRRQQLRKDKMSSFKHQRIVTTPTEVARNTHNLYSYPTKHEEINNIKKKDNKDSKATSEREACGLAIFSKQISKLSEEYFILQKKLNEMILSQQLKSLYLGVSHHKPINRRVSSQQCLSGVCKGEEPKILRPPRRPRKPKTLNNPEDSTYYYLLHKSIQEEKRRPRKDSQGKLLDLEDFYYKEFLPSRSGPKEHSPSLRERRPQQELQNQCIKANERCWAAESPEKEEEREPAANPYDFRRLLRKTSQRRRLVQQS
Chain of Serine/threonine-protein kinase Nek8 (Q86SG6 whole entry): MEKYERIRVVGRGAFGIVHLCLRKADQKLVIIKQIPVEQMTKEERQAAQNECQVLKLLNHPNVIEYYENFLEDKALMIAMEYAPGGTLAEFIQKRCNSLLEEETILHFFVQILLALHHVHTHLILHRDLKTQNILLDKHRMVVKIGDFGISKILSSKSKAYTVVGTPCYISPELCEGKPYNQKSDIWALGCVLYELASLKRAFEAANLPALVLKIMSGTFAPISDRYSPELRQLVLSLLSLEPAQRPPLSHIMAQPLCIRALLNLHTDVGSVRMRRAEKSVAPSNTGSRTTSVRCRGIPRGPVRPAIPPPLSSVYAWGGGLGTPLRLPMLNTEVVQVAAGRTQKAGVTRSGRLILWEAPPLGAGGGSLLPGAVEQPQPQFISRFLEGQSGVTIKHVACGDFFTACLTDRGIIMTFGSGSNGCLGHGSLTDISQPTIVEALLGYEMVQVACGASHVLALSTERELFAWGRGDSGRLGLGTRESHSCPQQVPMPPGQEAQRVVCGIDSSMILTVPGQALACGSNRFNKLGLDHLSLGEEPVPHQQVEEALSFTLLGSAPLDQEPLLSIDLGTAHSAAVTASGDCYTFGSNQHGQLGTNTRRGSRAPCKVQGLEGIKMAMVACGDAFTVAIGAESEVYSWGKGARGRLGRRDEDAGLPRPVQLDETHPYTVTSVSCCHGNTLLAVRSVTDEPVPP
Chain of Serine/threonine-protein kinase Sgk1 (O00141 whole entry): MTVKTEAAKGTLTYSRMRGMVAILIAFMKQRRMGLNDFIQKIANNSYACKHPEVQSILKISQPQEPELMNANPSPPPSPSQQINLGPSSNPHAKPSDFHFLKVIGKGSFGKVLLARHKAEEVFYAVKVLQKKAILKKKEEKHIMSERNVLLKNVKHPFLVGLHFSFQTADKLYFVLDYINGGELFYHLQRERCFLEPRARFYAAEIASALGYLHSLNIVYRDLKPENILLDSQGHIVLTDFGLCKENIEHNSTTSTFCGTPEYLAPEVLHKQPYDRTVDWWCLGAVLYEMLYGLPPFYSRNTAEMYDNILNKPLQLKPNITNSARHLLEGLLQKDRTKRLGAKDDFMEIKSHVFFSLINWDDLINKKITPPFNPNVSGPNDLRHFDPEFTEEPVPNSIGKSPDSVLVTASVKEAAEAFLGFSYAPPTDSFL

Consider `CN1C(=O)[C@@H](N2CCc3cn(Cc4ccccc4)nc3C2=O)COc2ccccc21` [TP-030-1], for which the inhibition (usually the drop in the measured response relative to a control, in per cent) was -2% in test [1]; 5.07% in [3]; -1.55% in test [4]; 12% in [5]; 18.8% in test [6]; -5.46% in test [7]. In addition, the inhibition in test [8] was -4.81%; in test [9], 1.77%; in test [10], 34.7%; in test [11], 0.09%; in test [12] it was 8.56%; in test [13] it was 6.63%. Further, the inhibition in the test filed under Rattus norvegicus is 68.7%; in test [14], 27%; in test [15], -5%; in the test listed under Oryctolagus cuniculus it was -6%. Further, the IC50 (usually the concentration at which inhibition is half-maximal) in [2] was 1000 nM.
Regarding `CN1C(=O)[C@@H](N2CCc3cn(CC4CCS(=O)(=O)CC4)nc3C2=O)COc2ccccc21` [TP-030n], the IC50 in [16], in test [17], in test [18], in test [19], in [20] and in test [21] was 1000 nM in each case. For the same molecule, the IC50 (in test [22]; in test [23]; in test [24]; in [25]; in [26]; at Myosin-IIIa) was 1000 nM in each case. Also, the IC50 in test [27], in [28], in test [29], in test [30], in test [31] and in [32] was 1000 nM in each case. The IC50 in test [33], in test [34] and in test [35] was 1000 nM each time. For the same molecule, the inhibition was 4% in test [36] and -10% in test [37].
